Results from the kinase profiling compilation of Christmann-Franck et al. (2016).

Molecular target: RPS6KA3 KD1 KD2 (human) (UniProt P51812)
Assay: radiometric filter-binding kinase assay
Details: compound 100.0 µM; ATP 50 µM

SMILES	inhibition
O=c1c(NC(=S)NCc2ccccc2)cnc2[nH]ccn12	20%
O=C(Nc1cnc2[nH]cnn2c1=O)c1ccccc1	11%
Nc1nc2cnc(-c3ccccc3)cn2n1	51%
Nc1cnc2c(-c3c(F)cccc3F)cccn2c1=O	52%
Cc1cccc(C)c1-c1cn2nc(N)nc2cn1	42%

Molecular target: MARK1 (human) (UniProt Q9P0L2)
Assay: radiometric filter-binding kinase assay
Details: compound 100.0 µM; ATP 20 µM

Sequence of MARK1 (human) (Q9P0L2 whole entry, looked up): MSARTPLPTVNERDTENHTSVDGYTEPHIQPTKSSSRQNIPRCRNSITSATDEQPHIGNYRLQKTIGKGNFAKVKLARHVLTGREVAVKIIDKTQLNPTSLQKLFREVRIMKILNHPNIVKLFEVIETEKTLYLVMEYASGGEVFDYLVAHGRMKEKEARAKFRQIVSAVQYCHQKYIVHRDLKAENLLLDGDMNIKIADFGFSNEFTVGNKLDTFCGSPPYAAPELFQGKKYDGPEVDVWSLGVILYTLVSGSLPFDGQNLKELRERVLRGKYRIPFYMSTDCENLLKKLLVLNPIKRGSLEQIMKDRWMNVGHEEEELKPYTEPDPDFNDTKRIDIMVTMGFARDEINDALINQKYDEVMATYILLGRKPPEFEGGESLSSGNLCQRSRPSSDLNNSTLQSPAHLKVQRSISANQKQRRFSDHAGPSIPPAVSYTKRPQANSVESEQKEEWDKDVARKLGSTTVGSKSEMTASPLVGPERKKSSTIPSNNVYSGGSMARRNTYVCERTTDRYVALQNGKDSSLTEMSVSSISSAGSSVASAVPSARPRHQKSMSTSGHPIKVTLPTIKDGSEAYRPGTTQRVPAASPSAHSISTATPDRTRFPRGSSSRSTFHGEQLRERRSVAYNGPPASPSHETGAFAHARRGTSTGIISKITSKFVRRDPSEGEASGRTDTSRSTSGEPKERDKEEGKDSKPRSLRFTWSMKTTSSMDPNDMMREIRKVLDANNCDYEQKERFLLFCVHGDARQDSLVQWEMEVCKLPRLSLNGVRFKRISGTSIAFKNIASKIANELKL

SMILES	inhibition
O=c1c(NC(=S)NCc2ccccc2)cnc2[nH]ccn12	13%
O=C(Nc1cnc2[nH]cnn2c1=O)c1ccccc1	0%
Nc1nc2cnc(-c3ccccc3)cn2n1	0%
Nc1cnc2c(-c3c(F)cccc3F)cccn2c1=O	49%
Cc1cccc(C)c1-c1cn2nc(N)nc2cn1	15%

Molecular target: MAPK1 (human) (UniProt P28482)
Assay: radiometric filter-binding kinase assay
Details: compound 100.0 µM; ATP 20 µM

SMILES	inhibition
O=c1c(NC(=S)NCc2ccccc2)cnc2[nH]ccn12	0%
O=C(Nc1cnc2[nH]cnn2c1=O)c1ccccc1	4%
Nc1nc2cnc(-c3ccccc3)cn2n1	47%
Nc1cnc2c(-c3c(F)cccc3F)cccn2c1=O	13%
Cc1cccc(C)c1-c1cn2nc(N)nc2cn1	14%

Molecular target: MAP3K5 (human) (UniProt Q99683)
Assay: radiometric filter-binding kinase assay
Details: compound 100.0 µM; ATP 50 µM

SMILES	inhibition
O=c1c(NC(=S)NCc2ccccc2)cnc2[nH]ccn12	0%
O=C(Nc1cnc2[nH]cnn2c1=O)c1ccccc1	9%
Nc1nc2cnc(-c3ccccc3)cn2n1	32%
Nc1cnc2c(-c3c(F)cccc3F)cccn2c1=O	86%
Cc1cccc(C)c1-c1cn2nc(N)nc2cn1	15%

Molecular target: MAPKAPK2 (human) (UniProt P49137)
Assay: radiometric filter-binding kinase assay
Details: compound 100.0 µM; ATP 20 µM

Sequence of MAPKAPK2 (human) (P49137 whole entry, looked up): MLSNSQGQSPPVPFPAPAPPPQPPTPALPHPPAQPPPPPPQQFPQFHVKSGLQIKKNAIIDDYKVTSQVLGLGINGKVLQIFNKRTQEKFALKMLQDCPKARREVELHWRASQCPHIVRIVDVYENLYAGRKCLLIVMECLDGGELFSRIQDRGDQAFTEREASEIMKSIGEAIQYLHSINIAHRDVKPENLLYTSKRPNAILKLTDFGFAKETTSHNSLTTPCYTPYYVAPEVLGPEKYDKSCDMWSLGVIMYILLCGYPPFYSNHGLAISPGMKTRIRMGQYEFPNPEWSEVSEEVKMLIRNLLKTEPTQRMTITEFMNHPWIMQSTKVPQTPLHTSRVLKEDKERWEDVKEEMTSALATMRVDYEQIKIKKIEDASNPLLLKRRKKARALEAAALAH

SMILES	inhibition
O=c1c(NC(=S)NCc2ccccc2)cnc2[nH]ccn12	23%
O=C(Nc1cnc2[nH]cnn2c1=O)c1ccccc1	17%
Nc1nc2cnc(-c3ccccc3)cn2n1	56%
Nc1cnc2c(-c3c(F)cccc3F)cccn2c1=O	20%
Cc1cccc(C)c1-c1cn2nc(N)nc2cn1	14%

Molecular target: IKBKE (human) (UniProt Q14164)
Assay: radiometric filter-binding kinase assay
Details: compound 100.0 µM; ATP 50 µM

SMILES	inhibition
O=c1c(NC(=S)NCc2ccccc2)cnc2[nH]ccn12	0%
O=C(Nc1cnc2[nH]cnn2c1=O)c1ccccc1	0%
Nc1nc2cnc(-c3ccccc3)cn2n1	39%
Nc1cnc2c(-c3c(F)cccc3F)cccn2c1=O	13%
Cc1cccc(C)c1-c1cn2nc(N)nc2cn1	28%

Molecular target: PRKCA (human) (UniProt P17252)
Assay: radiometric filter-binding kinase assay
Details: compound 100.0 µM; ATP 20 µM

SMILES	inhibition
O=c1c(NC(=S)NCc2ccccc2)cnc2[nH]ccn12	2%
O=C(Nc1cnc2[nH]cnn2c1=O)c1ccccc1	0%
Nc1nc2cnc(-c3ccccc3)cn2n1	2%
Nc1cnc2c(-c3c(F)cccc3F)cccn2c1=O	36%
Cc1cccc(C)c1-c1cn2nc(N)nc2cn1	9%

Molecular target: AURKA (human) (UniProt O14965)
Assay: radiometric filter-binding kinase assay
Details: compound 100.0 µM; ATP 5 µM

Sequence of AURKA (human) (O14965 whole entry, looked up): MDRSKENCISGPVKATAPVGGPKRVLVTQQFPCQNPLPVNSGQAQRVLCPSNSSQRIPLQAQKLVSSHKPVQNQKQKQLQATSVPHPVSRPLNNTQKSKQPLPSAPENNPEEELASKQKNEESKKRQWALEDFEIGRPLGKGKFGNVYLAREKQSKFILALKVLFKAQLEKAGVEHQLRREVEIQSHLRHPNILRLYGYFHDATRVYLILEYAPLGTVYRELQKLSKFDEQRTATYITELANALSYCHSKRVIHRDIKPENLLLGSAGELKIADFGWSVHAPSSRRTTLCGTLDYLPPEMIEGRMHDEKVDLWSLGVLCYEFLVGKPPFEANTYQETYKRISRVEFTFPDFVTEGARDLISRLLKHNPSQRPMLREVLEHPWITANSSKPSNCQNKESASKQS

SMILES	inhibition
O=c1c(NC(=S)NCc2ccccc2)cnc2[nH]ccn12	8%
O=C(Nc1cnc2[nH]cnn2c1=O)c1ccccc1	0%
Nc1nc2cnc(-c3ccccc3)cn2n1	52%
Nc1cnc2c(-c3c(F)cccc3F)cccn2c1=O	89%
Cc1cccc(C)c1-c1cn2nc(N)nc2cn1	12%

Molecular target: MAP3K9 (human) (UniProt P80192)
Assay: radiometric filter-binding kinase assay
Details: compound 100.0 µM; ATP 20 µM

Sequence of MAP3K9 (human) (P80192 whole entry, looked up): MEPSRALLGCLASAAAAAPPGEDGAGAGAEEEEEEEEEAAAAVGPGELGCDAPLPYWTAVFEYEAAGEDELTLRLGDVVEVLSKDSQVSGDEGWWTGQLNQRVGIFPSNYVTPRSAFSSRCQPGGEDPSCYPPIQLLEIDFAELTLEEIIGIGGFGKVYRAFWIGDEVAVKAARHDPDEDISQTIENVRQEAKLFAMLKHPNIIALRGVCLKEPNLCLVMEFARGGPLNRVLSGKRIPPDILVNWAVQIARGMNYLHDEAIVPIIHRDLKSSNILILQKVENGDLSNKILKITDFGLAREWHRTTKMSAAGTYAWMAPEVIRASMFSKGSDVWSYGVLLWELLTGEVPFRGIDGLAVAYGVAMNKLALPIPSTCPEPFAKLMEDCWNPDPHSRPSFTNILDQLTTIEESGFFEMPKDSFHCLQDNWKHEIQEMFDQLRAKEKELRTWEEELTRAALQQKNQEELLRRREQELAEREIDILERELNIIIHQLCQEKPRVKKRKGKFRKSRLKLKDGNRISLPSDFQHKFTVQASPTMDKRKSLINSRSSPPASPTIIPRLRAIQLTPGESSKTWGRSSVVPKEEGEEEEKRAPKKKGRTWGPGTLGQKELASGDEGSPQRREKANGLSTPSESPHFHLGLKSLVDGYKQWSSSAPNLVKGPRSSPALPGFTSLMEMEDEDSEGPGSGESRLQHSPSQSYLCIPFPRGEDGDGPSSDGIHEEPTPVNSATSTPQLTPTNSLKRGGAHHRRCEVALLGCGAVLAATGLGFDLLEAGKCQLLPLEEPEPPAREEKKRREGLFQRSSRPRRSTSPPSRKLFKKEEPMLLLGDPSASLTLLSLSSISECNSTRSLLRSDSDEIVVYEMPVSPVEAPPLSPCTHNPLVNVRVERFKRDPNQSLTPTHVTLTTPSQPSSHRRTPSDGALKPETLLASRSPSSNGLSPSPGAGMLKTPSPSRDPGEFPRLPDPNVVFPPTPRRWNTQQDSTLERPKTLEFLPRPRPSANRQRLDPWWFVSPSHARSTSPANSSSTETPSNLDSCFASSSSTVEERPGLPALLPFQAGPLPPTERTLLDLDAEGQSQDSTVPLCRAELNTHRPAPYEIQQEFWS

SMILES	inhibition
O=c1c(NC(=S)NCc2ccccc2)cnc2[nH]ccn12	0%
O=C(Nc1cnc2[nH]cnn2c1=O)c1ccccc1	0%
Nc1nc2cnc(-c3ccccc3)cn2n1	81%
Nc1cnc2c(-c3c(F)cccc3F)cccn2c1=O	79%
Cc1cccc(C)c1-c1cn2nc(N)nc2cn1	18%

Molecular target: PAK7 (human) (UniProt Q9P286)
Assay: radiometric filter-binding kinase assay
Details: compound 100.0 µM; ATP 20 µM

SMILES	inhibition
O=c1c(NC(=S)NCc2ccccc2)cnc2[nH]ccn12	0%
O=C(Nc1cnc2[nH]cnn2c1=O)c1ccccc1	0%
Nc1nc2cnc(-c3ccccc3)cn2n1	79%
Nc1cnc2c(-c3c(F)cccc3F)cccn2c1=O	35%
Cc1cccc(C)c1-c1cn2nc(N)nc2cn1	13%

Molecular target: MAP2K6 (human) (UniProt P52564)
Assay: radiometric filter-binding kinase assay
Details: compound 100.0 µM; ATP 50 µM

SMILES	inhibition
O=c1c(NC(=S)NCc2ccccc2)cnc2[nH]ccn12	0%
O=C(Nc1cnc2[nH]cnn2c1=O)c1ccccc1	3%
Nc1nc2cnc(-c3ccccc3)cn2n1	3%
Nc1cnc2c(-c3c(F)cccc3F)cccn2c1=O	10%
Cc1cccc(C)c1-c1cn2nc(N)nc2cn1	8%

Molecular target: RPS6KA1 KD1 KD2 (human) (UniProt Q15418)
Assay: radiometric filter-binding kinase assay
Details: compound 100.0 µM; ATP 50 µM

SMILES	inhibition
O=c1c(NC(=S)NCc2ccccc2)cnc2[nH]ccn12	17%
O=C(Nc1cnc2[nH]cnn2c1=O)c1ccccc1	15%
Nc1nc2cnc(-c3ccccc3)cn2n1	34%
Nc1cnc2c(-c3c(F)cccc3F)cccn2c1=O	21%
Cc1cccc(C)c1-c1cn2nc(N)nc2cn1	21%

Molecular target: TAOK1 (human) (UniProt Q7L7X3)
Assay: radiometric filter-binding kinase assay
Details: compound 100.0 µM; ATP 20 µM

SMILES	inhibition
O=c1c(NC(=S)NCc2ccccc2)cnc2[nH]ccn12	0%
O=C(Nc1cnc2[nH]cnn2c1=O)c1ccccc1	0%
Nc1nc2cnc(-c3ccccc3)cn2n1	37%
Nc1cnc2c(-c3c(F)cccc3F)cccn2c1=O	82%
Cc1cccc(C)c1-c1cn2nc(N)nc2cn1	12%

Molecular target: MAPK11 (human) (UniProt Q15759)
Assay: radiometric filter-binding kinase assay
Details: compound 100.0 µM; ATP 20 µM

Sequence of MAPK11 (human) (Q15759 whole entry, looked up): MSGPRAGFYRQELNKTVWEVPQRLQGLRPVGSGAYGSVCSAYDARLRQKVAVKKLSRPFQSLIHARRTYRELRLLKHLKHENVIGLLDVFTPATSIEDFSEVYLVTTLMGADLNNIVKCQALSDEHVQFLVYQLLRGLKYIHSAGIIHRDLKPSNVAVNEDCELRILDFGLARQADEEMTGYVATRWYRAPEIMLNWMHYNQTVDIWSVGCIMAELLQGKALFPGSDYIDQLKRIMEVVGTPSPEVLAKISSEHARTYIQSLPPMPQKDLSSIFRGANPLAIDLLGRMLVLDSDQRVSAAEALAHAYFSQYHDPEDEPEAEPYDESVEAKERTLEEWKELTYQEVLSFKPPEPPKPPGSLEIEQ

SMILES	inhibition
O=c1c(NC(=S)NCc2ccccc2)cnc2[nH]ccn12	7%
O=C(Nc1cnc2[nH]cnn2c1=O)c1ccccc1	2%
Nc1nc2cnc(-c3ccccc3)cn2n1	34%
Nc1cnc2c(-c3c(F)cccc3F)cccn2c1=O	13%
Cc1cccc(C)c1-c1cn2nc(N)nc2cn1	20%

Molecular target: PLK1 (human) (UniProt P53350)
Assay: radiometric filter-binding kinase assay
Details: compound 100.0 µM; ATP 5 µM

Sequence of PLK1 (human) (P53350 whole entry, looked up): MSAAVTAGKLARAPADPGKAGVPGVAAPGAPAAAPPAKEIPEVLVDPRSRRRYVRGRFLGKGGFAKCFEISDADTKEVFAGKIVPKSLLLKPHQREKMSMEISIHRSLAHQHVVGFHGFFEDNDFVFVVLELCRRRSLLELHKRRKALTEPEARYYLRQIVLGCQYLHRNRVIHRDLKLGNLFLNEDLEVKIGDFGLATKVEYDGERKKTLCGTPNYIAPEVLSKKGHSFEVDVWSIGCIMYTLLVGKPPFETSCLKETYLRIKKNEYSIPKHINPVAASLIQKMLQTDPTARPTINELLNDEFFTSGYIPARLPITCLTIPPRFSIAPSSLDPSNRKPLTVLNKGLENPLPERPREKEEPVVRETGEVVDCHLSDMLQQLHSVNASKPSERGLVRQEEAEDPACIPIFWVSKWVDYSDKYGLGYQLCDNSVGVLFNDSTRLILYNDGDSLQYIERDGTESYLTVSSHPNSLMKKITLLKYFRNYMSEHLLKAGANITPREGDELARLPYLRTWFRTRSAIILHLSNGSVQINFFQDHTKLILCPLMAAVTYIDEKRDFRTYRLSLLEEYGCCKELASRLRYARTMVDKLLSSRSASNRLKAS

SMILES	inhibition
O=c1c(NC(=S)NCc2ccccc2)cnc2[nH]ccn12	0%
O=C(Nc1cnc2[nH]cnn2c1=O)c1ccccc1	0%
Nc1nc2cnc(-c3ccccc3)cn2n1	18%
Nc1cnc2c(-c3c(F)cccc3F)cccn2c1=O	0%
Cc1cccc(C)c1-c1cn2nc(N)nc2cn1	8%

Molecular target: RPS6KA5 KD1 KD2 (human) (UniProt O75582)
Assay: radiometric filter-binding kinase assay
Details: compound 100.0 µM; ATP 20 µM

SMILES	inhibition
O=c1c(NC(=S)NCc2ccccc2)cnc2[nH]ccn12	0%
O=C(Nc1cnc2[nH]cnn2c1=O)c1ccccc1	52%
Nc1nc2cnc(-c3ccccc3)cn2n1	19%
Nc1cnc2c(-c3c(F)cccc3F)cccn2c1=O	33%
Cc1cccc(C)c1-c1cn2nc(N)nc2cn1	6%

Molecular target: CSK (human) (UniProt P41240)
Assay: radiometric filter-binding kinase assay
Details: compound 100.0 µM; ATP 20 µM

SMILES	inhibition
O=c1c(NC(=S)NCc2ccccc2)cnc2[nH]ccn12	26%
O=C(Nc1cnc2[nH]cnn2c1=O)c1ccccc1	8%
Nc1nc2cnc(-c3ccccc3)cn2n1	71%
Nc1cnc2c(-c3c(F)cccc3F)cccn2c1=O	11%
Cc1cccc(C)c1-c1cn2nc(N)nc2cn1	24%

Molecular target: AURKB (human) (UniProt Q96GD4)
Assay: radiometric filter-binding kinase assay
Details: compound 100.0 µM; ATP 20 µM

SMILES	inhibition
O=c1c(NC(=S)NCc2ccccc2)cnc2[nH]ccn12	0%
O=C(Nc1cnc2[nH]cnn2c1=O)c1ccccc1	0%
Nc1nc2cnc(-c3ccccc3)cn2n1	76%
Nc1cnc2c(-c3c(F)cccc3F)cccn2c1=O	81%
Cc1cccc(C)c1-c1cn2nc(N)nc2cn1	29%

Molecular target: PAK6 (human) (UniProt Q9NQU5)
Assay: radiometric filter-binding kinase assay
Details: compound 100.0 µM; ATP 20 µM

Sequence of PAK6 (human) (Q9NQU5 whole entry, looked up): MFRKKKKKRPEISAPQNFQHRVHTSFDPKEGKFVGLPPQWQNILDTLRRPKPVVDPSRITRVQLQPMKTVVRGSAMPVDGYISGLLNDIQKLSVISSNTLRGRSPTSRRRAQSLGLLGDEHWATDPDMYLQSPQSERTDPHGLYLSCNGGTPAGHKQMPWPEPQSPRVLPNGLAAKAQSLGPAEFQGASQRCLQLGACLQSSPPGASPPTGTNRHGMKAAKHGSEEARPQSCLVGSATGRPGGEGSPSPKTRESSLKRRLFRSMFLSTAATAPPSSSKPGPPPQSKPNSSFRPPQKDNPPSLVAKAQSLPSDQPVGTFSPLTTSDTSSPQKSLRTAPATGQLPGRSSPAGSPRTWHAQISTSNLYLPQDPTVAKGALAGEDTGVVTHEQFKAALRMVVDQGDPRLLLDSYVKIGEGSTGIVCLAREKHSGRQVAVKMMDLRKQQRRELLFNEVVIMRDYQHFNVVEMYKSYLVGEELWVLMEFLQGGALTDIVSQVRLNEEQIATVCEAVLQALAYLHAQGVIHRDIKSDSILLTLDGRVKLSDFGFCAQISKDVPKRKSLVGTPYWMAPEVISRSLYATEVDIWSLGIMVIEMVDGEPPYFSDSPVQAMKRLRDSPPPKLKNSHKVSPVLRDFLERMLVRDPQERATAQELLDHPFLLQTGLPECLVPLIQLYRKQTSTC

SMILES	inhibition
O=c1c(NC(=S)NCc2ccccc2)cnc2[nH]ccn12	0%
O=C(Nc1cnc2[nH]cnn2c1=O)c1ccccc1	0%
Nc1nc2cnc(-c3ccccc3)cn2n1	36%
Nc1cnc2c(-c3c(F)cccc3F)cccn2c1=O	10%
Cc1cccc(C)c1-c1cn2nc(N)nc2cn1	11%

System: ROCK2 (rat)
Assay: radiometric filter-binding kinase assay
Details: compound 100.0 µM; ATP 20 µM; accession and sequence are those of the human protein

SMILES	inhibition
O=c1c(NC(=S)NCc2ccccc2)cnc2[nH]ccn12	13%
O=C(Nc1cnc2[nH]cnn2c1=O)c1ccccc1	0%
